# Assay results from publication PMC10123104 (Nucleic Acids Research, 2023).
# No end group written: not given here.
# Molecular target: YbiB (Escherichia coli, UniProt P30177)
# Experiment: biochemical
# Type: binding
# YbiB, sequence (P30177 whole entry): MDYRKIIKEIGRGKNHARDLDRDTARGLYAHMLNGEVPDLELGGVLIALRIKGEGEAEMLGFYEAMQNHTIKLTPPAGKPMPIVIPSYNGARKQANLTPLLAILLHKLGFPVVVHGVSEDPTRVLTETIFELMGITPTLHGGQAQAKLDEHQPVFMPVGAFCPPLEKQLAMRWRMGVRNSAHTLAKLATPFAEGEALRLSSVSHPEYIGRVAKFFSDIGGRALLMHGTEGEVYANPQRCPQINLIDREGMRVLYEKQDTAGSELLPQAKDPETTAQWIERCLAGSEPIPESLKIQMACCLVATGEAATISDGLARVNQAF
Compound,"stoichiometry n (ITC, Figure 3C isotherm, single binding event)",Kd [µM]
CC[C@H](C)[C@H](NC(=O)[C@H](Cc1ccccc1)NC(=O)[C@H](CCC(=O)O)NC(=O)[C@@H](NC(=O)CNC(=O)[C@H](CCC(=O)O)NC(=O)[C@H](CCC(=O)O)NC(=O)[C@H](CC(=O)O)NC(=O)[C@H](CC(=O)O)NC(=O)[C@H](CCC(=O)O)NC(=O)[C@H](CC(=O)O)NC(=O)[C@H](Cc1c[nH]c2ccccc12)NC(=O)[C@H](CC(=O)O)NC(=O)[C@H](CC(=O)O)NC(=O)[C@H](CC(=O)O)NC(=O)[C@H](Cc1c[nH]c2ccccc12)NC(=O)[C@@H](N)CC(=O)O)C(C)C)C(=O)N[C@@H](Cc1ccc(O)cc1)C(=O)N[C@@H](CCCCN)C(=O)N[C@@H](CCCNC(=N)N)C(=O)O [peptide5],0.937 ± 0.008,–
LEEIAEEDDEDADDDADEDD [peptide4-AA],–,~10
